Values of other authors, collected in patent US20030157192A1, “Low temperature disinfectant/sterilant for medical devices and topical applications” (Healthpoint, Ltd., priority 2002, published 2003).

How the values were obtained:
[1] = room temperature; low pH
mouse skin = details: tested on mouse skin

| Compound | minimum time required to pass the AOAC Sporicidal Test [1] [h] | tumor promotion (mouse skin) |
| --- | --- | --- |
| OO [6% hydrogen peroxide, hydrogen peroxide] | ≥ 6 | – |
| CC(=O)OO [Peracetic acid] | – | tumor-promoting agent |
